Format in all cases: in vivo
For assay [1], the system named is Meloidogyne incognita. Nature of the assay: Meloidogyne incognita test (soil drench, gall formation after 21 days). The note with it: 504 h, lettuce, read-out: nematicidal efficacy in % (formation of galls); for pest or weed control at 0.25 ppm: application rate 0.25 ppm; for pest or weed control at 1 ppm: application rate 1 ppm; for pest or weed control at 0.125 ppm: application rate 0.125 ppm. The method, then: (§1) Meloidogyne incognita Test Solvent: 7 parts by weight of dimethylformamide Emulsifier: 2.5 parts by weight of alkylaryl polyglycol ether To produce a suitable active ingredient formulation, 1 part by weight of active ingredient is mixed with the specified amounts of solvent and emulsifier, and the concentrate is diluted with water to the desired concentration, it being necessary to take account of the volume of soil which is drenched. It should be ensured that a concentration of 20 ppm of emulsifier in the soil is not exceeded. To produce further test concentrations, water is used for dilution. Pots filled with soil (loamy sand) are watered with the active ingredient solution. An egg/larvae suspension of the southern root-knot nematode (Meloidogyne incognita) is added, lettuce seeds are scattered over the surface of the soil, and they are covered over with quartz sand. The lettuce seeds germinate and the plants develop. The galls develop on the roots. After 21 days, the nematicidal efficacy in % is determined by the formation of galls. 100% means that no galls have been found; 0% means that the number of galls on the treated plants corresponds to the untreated control.

Assay [2] has as its system Meloidogyne incognita. Put plainly: Meloidogyne incognita test (sand, acetone formulation, gall formation after 14 days). The note with it: 336 h, application rate 4 ppm, lettuce in sand, read-out: nematicidal efficacy in % (formation of galls). The method, then: Meloidouyne incognita Test Solvent: 125.0 parts by weight of acetone To produce an appropriate active ingredient formulation, 1 part by weight of active ingredient is mixed with the stated amount of solvent and the concentrate is diluted to the desired concentration with water. Vessels are filled with sand, active ingredient solution, an egg/larvae suspension of the southern root-knot nematode (Meloidogyne incognita) and lettuce seeds. The lettuce seeds germinate and the plants develop. The galls develop on the roots. After 14 days, the nematicidal efficacy in % is determined by the formation of galls. 100% means that no galls were found; 0% means that the number of galls on the treated plants corresponds to the untreated control.

Assay [3] has as its system Meloidogyne incognita. Put plainly: Meloidogyne incognita test (MELGIN), comparison with prior art. The note with it: 504 h, after 21 days. The procedure: as §1, with “Test (MELGIN)” for “Test”
Assay [4] deals with Heterodera pallida. Nature of the assay: Heterodera pallida - soil mixing test (HETDPA). The note with it: Globodera pallida, 1008 h, cysts on potato roots after six weeks, Abbott formula, read-out: % Efficacy. The procedure:
Heterodera pallida-Soil Mixing Test ([…]) Solvent: 4 parts by weight of acetone Emulsifier: 1 part by weight of alkylaryl polyglycol ether To produce a suitable preparation of active ingredient, 1 part by weight of active ingredient is mixed with the stated amounts of solvent and emulsifier, and the concentrate is diluted with water to the desired concentration. This active ingredient formulation is mixed with soil (loamy sand). The stated concentration refers to the amount of active ingredient per volume unit of soil (ppm=mg/l). 40 cysts of the white potato nematode (Heterodera pallida, 250-275 larvae/cysts) are introduced into 500 ml of this active ingredient soil and mixed. The mixture is introduced into pots and planted in each case with a one-week-old potato seedling (Solanum tuberosum). After six weeks, the potato roots are checked for cysts and the average number per pot is calculated as efficacy by the Abbott formula: [formula] B=treated plants K=untreated control plants

SMILES strings stand for the structures.

For the compound `Cc1ccccc1S(=O)(=O)NC(=O)c1nc(Br)n([C@H]2C[C@@H]2C(F)(F)F)c1Br` (racemic) [I-08], in assay [1], the pest or weed control at 0.25 ppm was determined as 100% and the pest or weed control at 1 ppm was 100%. The pest or weed control at 4 ppm in assay [2] came out at 100%.
For the compound `COc1ccc(Cl)c(S(=O)(=O)NC(=O)c2nc(Br)n([C@H]3C[C@@H]3C(F)(F)F)c2Br)c1` (racemic) [I-06], in assay [1], the pest or weed control at 0.125 ppm stood at 100%, the pest or weed control at 0.25 ppm turned out to be 100% and the pest or weed control at 1 ppm amounted to 100%. Also, the pest or weed control at 4 ppm in assay [2] worked out at 100%. Besides, the Emax at 0.015625 ppm in assay [3] (read-out: % Efficacy) turned out to be 65%. In assay [3], this compound came in with a nematicidal efficacy (% gall reduction) at 0.03125 ppm of 92.5%.
For the compound `CCOc1ccc(Cl)c(S(=O)(=O)NC(=O)c2nc(Cl)n([C@H]3C[C@@H]3C(F)(F)F)c2Br)c1` (racemic) [I-04], in assay [1], the pest or weed control at 0.125 ppm amounted to 90%, the pest or weed control at 0.25 ppm was determined as 100% and the pest or weed control at 1 ppm stood at 100%. Moreover, the pest or weed control at 4 ppm in assay [2] stood at 100%. In assay [3], the nematicidal efficacy (% gall reduction) at 0.03125 ppm was found to be 97%.
`COc1ccc(Cl)c(S(=O)(=O)NC(=O)c2nc(Cl)n([C@H]3C[C@@H]3C(F)(F)F)c2Br)c1` (racemic) [I-01]: in assay [1], the pest or weed control at 0.125 ppm was 90%, the pest or weed control at 0.25 ppm came out at 97% and the pest or weed control at 1 ppm was 100%. The pest or weed control at 4 ppm in assay [2] amounted to 100%. Moreover, the Emax at 0.015625 ppm in assay [3] (read-out: % Efficacy) worked out at 58.3%. Also, in assay [3], the nematicidal efficacy (% gall reduction) at 0.03125 ppm came to 95%. In addition, in assay [4], the Emax at 0.25 ppm amounted to 75%, the Emax at 0.5 ppm is 90% and the Emax at 1 ppm is 100%.
Turning to `COc1ccc(Br)c(S(=O)(=O)NC(=O)c2nc(Cl)n([C@@H]3C[C@H]3C(F)(F)F)c2Cl)c1` [Ex. I-465, reference compound], the Emax at 0.03125 ppm in assay [3] (read-out: % Efficacy) is 0%. Also, the Emax at 0.0625 ppm in assay [3] (0.0625 ppm, read-out: % Efficacy) amounted to 25%. Also, the nematicidal efficacy (% gall reduction) at 0.125 ppm in assay [3] came to 95%.
On to `O=C(NS(=O)(=O)c1cc(Cl)ccc1Cl)c1nc(Cl)n([C@H]2C[C@@H]2C(F)(F)F)c1Br` (racemic) [I-02], for which, in assay [1], the pest or weed control at 0.125 ppm worked out at 90%, the pest or weed control at 0.25 ppm came out at 90% and the pest or weed control at 1 ppm was determined as 100%. Also, the pest or weed control at 4 ppm in assay [2] was determined as 100%.
Consider `COc1ccc(Br)c(S(=O)(=O)NC(=O)c2nc(Br)n([C@H]3C[C@@H]3C(F)(F)F)c2Br)c1` (racemic) [I-07], for which, in assay [1], the pest or weed control at 0.125 ppm stood at 100%, the pest or weed control at 0.25 ppm stood at 100% and the pest or weed control at 1 ppm came to 100%. In addition, in assay [2], the pest or weed control at 4 ppm came to 100%. In assay [3] (read-out: % Efficacy), the Emax at 0.03125 ppm worked out at 90%. For the same compound, the nematicidal efficacy (% gall reduction) at 0.0625 ppm in assay [3] (0.0625 ppm) was 100%. Besides, the nematicidal efficacy (% gall reduction) at 0.125 ppm in assay [3] was 100%.
As for `COc1ccc(Br)c(S(=O)(=O)NC(=O)c2nc(Cl)n([C@H]3C[C@@H]3C(F)(F)F)c2Br)c1` (racemic) [I-05], in assay [1], the pest or weed control at 0.125 ppm was 100%, the pest or weed control at 0.25 ppm worked out at 100% and the pest or weed control at 1 ppm is 100%. Moreover, in assay [2], the pest or weed control at 4 ppm amounted to 100%.
Consider `O=C(NS(=O)(=O)c1ccccc1Cl)c1nc(Br)n(CCC(F)(F)F)c1Cl` [Ex. I-440, reference compound], for which, in assay [3], the nematicidal efficacy (% gall reduction) at 0.125 ppm came out at 0% and the nematicidal efficacy (% gall reduction) at 0.5 ppm worked out at 0%.
For the compound `O=C(NS(=O)(=O)c1cc(OCC(F)F)ccc1Cl)c1nc(Br)n([C@@H]2C[C@H]2C(F)(F)F)c1Br` (racemic) [I-10], the pest or weed control at 0.125 ppm in assay [1] was determined as 100%. The pest or weed control at 4 ppm in assay [2] was 100%.
Consider `Cc1ccccc1S(=O)(=O)NC(=O)c1nc(Cl)n([C@H]2C[C@@H]2C(F)(F)F)c1Br` (racemic) [I-03], for which, in assay [1], the pest or weed control at 0.125 ppm was found to be 90%, the pest or weed control at 0.25 ppm was 100% and the pest or weed control at 1 ppm amounted to 100%. For the same compound, the pest or weed control at 4 ppm in assay [2] was found to be 100%.
Regarding `COc1ccc(Cl)c(S(=O)(=O)NC(=O)c2nc(Cl)n([C@@H]3C[C@H]3C(F)(F)F)c2Cl)c1` [Ex. I-470, reference compound], in assay [3] (read-out: % Efficacy), the Emax at 0.015625 ppm was 0%. In addition, the nematicidal efficacy (% gall reduction) at 0.03125 ppm in assay [3] came to 48%. Further, in assay [4], the Emax at 0.25 ppm amounted to 0%, the Emax at 0.5 ppm amounted to 0% and the Emax at 1 ppm was 70%.
In the case of `COc1ccc(Cl)c(S(=O)(=O)NC(=O)c2nc(Br)n([C@H]3C[C@@H]3C(F)(F)F)c2Cl)c1` (racemic) [I-12], the pest or weed control at 0.125 ppm in assay [1] turned out to be 100%. Further, the pest or weed control at 4 ppm in assay [2] was determined as 100%. This compound had a nematicidal efficacy (% gall reduction) at 0.125 ppm in assay [3] of 100%.
For the compound `CCOc1ccc(Cl)c(S(=O)(=O)NC(=O)c2nc(Br)n([C@H]3C[C@@H]3C(F)(F)F)c2Br)c1` (racemic) [I-09], in assay [1], the pest or weed control at 0.125 ppm stood at 90%, the pest or weed control at 0.25 ppm stood at 100% and the pest or weed control at 1 ppm was found to be 100%. The pest or weed control at 4 ppm in assay [2] was determined as 100%.
In turn, `CCOc1ccc(Cl)c(S(=O)(=O)NC(=O)c2nc(Cl)n([C@@H]3C[C@H]3C(F)(F)F)c2Cl)c1` [Ex. I-459, reference compound] came in with a nematicidal efficacy (% gall reduction) at 0.03125 ppm in assay [3] of 10%.
Take `O=C(NS(=O)(=O)c1cc(OCC(F)F)ccc1Cl)c1nc(Cl)n([C@@H]2C[C@H]2C(F)(F)F)c1Br` (racemic) [I-11]: the pest or weed control at 0.125 ppm in assay [1] turned out to be 98%. For the same compound, the pest or weed control at 4 ppm in assay [2] came to 100%.
Turning to `O=C(NS(=O)(=O)c1ccccc1Cl)c1nc(Br)n([C@@H]2C[C@H]2C(F)(F)F)c1Cl` (racemic) [I-13], the pest or weed control at 1 ppm in assay [1] is 80%. Further, in assay [2], the pest or weed control at 4 ppm turned out to be 100%. In assay [3], this compound showed a nematicidal efficacy (% gall reduction) at 0.5 ppm of 70%.
